# Assay results as given in patent US8785488B2 (Exelixis Patent Company LLC, priority 2009, dated 2014).
# Columns and labels:
# human TGR5 (h-TGR5) = target: T1, human TGR5 (h-TGR5) (Homo sapiens, UniProt Q8TDU6); assay: TGR5/CRE-Luciferiase Assay (HEK 293 hTGR5/CRE-Luc cells); type: cell-based; conditions: h-TGR5 CRE-Luc EC50, Table 1; read-out: CRE-Luc (EC50)
# T1 construct: expressed in transfected cells
# T1 sequence (Q8TDU6 1-330): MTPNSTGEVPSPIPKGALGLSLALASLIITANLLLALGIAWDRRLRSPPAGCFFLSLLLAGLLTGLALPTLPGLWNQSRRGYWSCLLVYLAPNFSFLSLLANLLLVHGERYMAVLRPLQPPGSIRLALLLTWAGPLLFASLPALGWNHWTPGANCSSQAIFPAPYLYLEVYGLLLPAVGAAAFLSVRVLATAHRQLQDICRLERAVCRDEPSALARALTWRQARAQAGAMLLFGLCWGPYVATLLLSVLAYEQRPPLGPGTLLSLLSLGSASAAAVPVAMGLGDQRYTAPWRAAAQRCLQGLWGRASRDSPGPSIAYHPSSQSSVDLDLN
# Outline: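 HEK293 cells stably carrying hTGR5 and a CRE-luciferase reporter were exposed to serially diluted compounds (diluted in DMEM with 5% DMSO) for 6 h. Cells were then lysed in luciferase buffer, luminescence was read, and EC50 values were derived from dose-response curves.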
# h-TGR5 = target: T2, h-TGR5 (Homo sapiens, UniProt Q8TDU6); assay: TGR5 cAMP Assay using Cisbio cAMP Dynamic2 htrf kit (hTGR5CRE-luc HEK 293 cells); type: cell-based; conditions: h-TGR5 cAMP EC50, Table 1; read-out: cAMP (EC50)
# T2 construct: expressed in transfected cells
# T2 sequence (Q8TDU6 1-330): T1 sequence (Q8TDU6 1-330)
# Experimental: Compounds were diluted in DPBS with 5% DMSO (8-point serial dilution by half logs) in a 96-well plate and 1 μL was transferred to a 384-well assay plate in quadruplicate. The d2-cAMP and anti-cAMP Ab-cryptate stock solution were prepared as per the instructions in the Cisbio™ (Bedford, Mass.) kit. […] Cells were adjusted to 0.44×10^6 cells/ml followed by addition of IBMX to a final concentration of 0.5 mM. The cells were then mixed with d2-cAMP solution (7.1 mL cells+100 ul d2-cAMP) and 4000 cells (9 μL) were transferred to each well of the 384-well assay plate. Cells without d2-cAMP were added to eight wells as a negative control. The plate was covered and incubated at room temp for 30 min. Then 10 μL of Ab-cryptate solution was added to each well of the assay plate and incubated for 1 hr. The plate was read on an EnVision™ plate reader (Perkin-Elmer, Waltham, Mass.) and the DeltaF value was calculated as per the instructions in the Cisbio™ kit.
# In the following tables, EC50 values determined according to the TGR5 cAMP Assay described herein (cAMP); EC50 values determined according to the TGR5/CRE-Luciferiase Assay described herein (CRE-Luc). […] The following compounds in Tables 1 and 2 were made by using procedures described in the above Schemes and Examples, and, where applicable, by making any necessary substitutions of known materials that one skilled in the art would ordinarily understand how to do.
Compound,EC50 (human TGR5 (h-TGR5)),EC50 (h-TGR5)
CC(C)(c1ccc(Cl)c(OCCCN2CCOCC2)c1)c1cnc(SCc2c(F)cccc2Cl)n1-c1ccc(F)cc1,0.1 to 1 µM,0.1 to 1 µM
CC(C)(c1ccc(Cl)c(Cl)c1)c1cnc(COc2c(F)cc(C(=O)O)cc2Cl)n1-c1ccc(F)cc1,0.1 to 1 µM,0.1 to 1 µM
"4-({[5-{1-[4-chloro-3-(methyloxy)phenyl]-1- methylethyl}-1-(4-fIuorophenyl)-1H-imidazol- 2-yl]thio}methyl)-3,5-difluoro-N-[(pyrrolidin- 1-ylamino)carbonyl]benzenesulfonamide",< 0.1 µM,< 0.1 µM
"COc1cc(-n2c(C(C)(C)c3ccc(F)c(Cl)c3)cnc2SCc2c(F)cc(OCCNC(=N)N)cc2F)ccc1F [1-[2-({4-[({5-[1-(3-chloro-4-fluorophenyl)-1-methylethyl]-1-[4-fluoro-3-(methyloxy)phenyl]-1H-imidazol-2-yl}thio)methyl]-3,5-difluorophenyl}oxy)ethyl]guanidine]",< 0.1 µM,< 0.1 µM
"CC(=O)N1CCC(CSc2ncc(C(C)(C)c3ccc(Cl)c(Cl)c3)n2-c2ccc(F)cc2)CC1 [1-acetyl-4-[({5-[1-(3,4-dichlorophenyl)-1-methylethyl]-1-(4-fluorophenyl)-1H-imidazol-2-yl}thio)methyl]piperidine]",< 0.1 µM,0.1 to 1 µM
"COc1cc(C(C)(C)c2cnc(SCc3c(F)cc(C#CCNC(=N)N)cc3F)n2-c2ccc(F)cc2)ccc1Cl [1-{3-[4-({[5-{1-[4-chloro-3-(methyloxy)phenyl]-1-methylethyl}-1-(4-fluorophenyl)-1H-imidazol-2-yl]thio}methyl)-3,5-difluorophenyl]prop-2-yn-1-yl}guanidine]",< 0.1 µM,< 0.1 µM
"CC(C)(c1ccc(S(N)(=O)=O)cc1)c1cnc(SCc2ccc(S(=O)(=O)NC(=O)NN3CCOCC3)cc2Cl)n1-c1ccc(F)c(F)c1 [4-({[5-{1-[4-(aminosulfonyl)phenyl]-1-methylethyl}-1-(3,4-difluorophenyl)-1H-imidazol-2-yl]thio}methyl)-3-chloro-N-[(morpholin-4-ylamino)carbonyl]benzenesulfonamide]",–,1 to 10 µM
CC(C)(c1ccc(S(N)(=O)=O)cc1)c1cnc(SCc2ccc(S(=O)(=O)NC(=O)NN3CCOCC3)cc2Cl)n1-c1ccc(F)c(Cl)c1 [4-({[5-{1-[4-(aminosulfonyl)phenyl]-1-methylethyl}-1-(3-chloro-4-fluorophenyl)-1H-imidazol-2-yl]thio}methyl)-3-chloro-N-[(morpholin-4-ylamino)carbonyl]benzenesulfonamide],–,1 to 10 µM
CNS(=O)(=O)c1ccc(C(C)(C)c2cnc(SCc3ccc(S(=O)(=O)NC(=O)NN4CCCC4)cc3Cl)n2-c2ccc(F)cc2)cc1OC [4-{1-[2-({[2-chloro-4-({[(pyrrolidin-1-ylamino)carbonyl]amino}sulfonyl)phenyl]methyl}thio)-1-(4-fluorophenyl)-1H-imidazol-5-yl]-1-methylethyl}-N-methyl-2-(methyloxy)benzenesulfonamide],–,0.1 to 1 µM
"CC(C)(c1ccc(S(C)(=O)=O)cc1)c1cnc(SCc2ccc(Cl)c(-c3nnn[nH]3)c2)n1-c1ccc(F)c(F)c1 [5-[2-chloro-5-({[1-(3,4-difluorophenyl)-5-{1-methyl-1-[4-(methylsulfonyl)phenyl]ethyl}-1H-imidazol-2-yl]thio}methyl)phenyl]-1H-tetrazole]",–,1 to 10 µM
CC(C)(c1ccc(S(C)(=O)=O)cc1)c1cnc(SCc2ccc(Cl)c(-c3nnn[nH]3)c2)n1-c1ccc(F)cc1 [5-[2-chloro-5-({[1-(4-fluorophenyl)-5-{1-methyl-1-[4-(methylsulfonyl)phenyl]ethyl}-1H-imidazol-2-yl]thio}methyl)phenyl]-1H-tetrazole],–,1 to 10 µM
COc1cc(C(C)(C)c2cnc(SCc3ccc(S(=O)(=O)NC(=O)NCC(=O)O)cc3Cl)n2-c2ccc(F)cc2)ccc1Cl [N-[({[3-chloro-4-({[5-{1-[4-chloro-3-(methyloxy)phenyl]-1-methylethyl}-1-(4-fluorophenyl)-1H-imidazol-2-yl]thio}methyl)phenyl]sulfonyl}amino)carbonyl]glycine],–,0.1 to 1 µM

# Next, values leading:
EC50 (human TGR5 (h-TGR5)),EC50 (h-TGR5),Compound
0.1 to 1 µM,< 0.1 µM,CC(C)(c1ccc(F)c(F)c1)c1cnc(SCc2c(F)cc(C(=O)O)cc2F)n1-c1ccc(F)cc1
< 0.1 µM,< 0.1 µM,COc1cc(C(C)(C)c2cnc(SCc3c(F)cc(NC(=O)[C@@H](N)CC(=O)O)cc3Cl)n2-c2ccc(F)cc2)ccc1Cl
0.1 to 1 µM,< 0.1 µM,COc1cc(C(C)(C)c2cnc(SCc3cc(OCCNC(=N)N)c(Cl)cc3F)n2-c2ccc(F)cc2)ccc1Cl [1-(2-{[2-chloro-5-({[5-{1-[4-chloro-3-(methyloxy)phenyl]-1-methylethyl}-1-(4-fluorophenyl)-1H-imidazol-2-yl]thio}methyl)-4-fluorophenyl]oxy}ethyl)guanidine]
< 0.1 µM,< 0.1 µM,"COc1cc(C(C)(C)c2cnc(SCc3c(F)cc(OCCNC(=N)N)cc3F)n2-c2ccc(F)cc2)ccc1F [1-(2-{[3,5-difluoro-4-({[5-{1-[4-fluoro-3-(methyloxy)phenyl]-1-methylethyl}-1-(4-fluorophenyl)-1H-imidazol-2-yl]thio}methyl)phenyl]oxy}ethyl)guanidine]"
< 0.1 µM,< 0.1 µM,COc1cc(C(C)(C)c2cnc(SCc3c(F)cc(OCCNC(=N)N)cc3Cl)n2-c2ccc(F)cc2)ccc1Cl [1-(2-{[3-chloro-4-({[5-{1-[4-chloro-3-(methyloxy)phenyl]-1-methylethyl}-1-(4-fluorophenyl)-1H-imidazol-2-yl]thio}methyl)-5-fluorophenyl]oxy}ethyl)guanidine]
< 0.1 µM,< 0.1 µM,COc1cc(C(C)(C)c2cnc(SCc3c(F)cc(OCCNC(=N)N)cc3Cl)n2-c2ccc(F)cc2)ccc1F [1-(2-{[3-chloro-5-fluoro-4-({[5-{1-[4-fluoro-3-(methyloxy)phenyl]-1-methylethyl}-1-(4-fluorophenyl)-1H-imidazol-2-yl]thio}methyl)phenyl]oxy}ethyl)guanidine]
< 0.1 µM,< 0.1 µM,"COc1cc(C(C)(C)c2cnc(SCc3c(F)cc(OCCNC(=N)N)cc3F)n2-c2ccc(F)cc2)ccc1Cl [1-(2-{[4-({[5-{1-[4-chloro-3-(methyloxy)phenyl]-1-methylethyl}-1-(4-fluorophenyl)-1H-imidazol-2-yl]thio}methyl)-3,5-difluorophenyl]oxy}ethyl)guanidine]"
< 0.1 µM,< 0.1 µM,COc1cc(C(C)(C)c2cnc(SCc3c(F)ccc(OCCCNC(=N)N)c3Cl)n2-c2ccc(F)cc2)ccc1F [1-(3-{[2-chloro-4-fluoro-3-({[5-{1-[4-fluoro-3-(methyloxy)phenyl]-1-methylethyl}-1-(4-fluorophenyl)-1H-imidazol-2-yl]thio}methyl)phenyl]oxy}propyl)guanidine]
< 0.1 µM,< 0.1 µM,"COc1cc(C(C)(C)c2cnc(SCc3c(F)cc(OCCCNC(=N)N)cc3F)n2-c2ccc(F)cc2)ccc1F [1-(3-{[3,5-difluoro-4-({[5-{1-[4-fluoro-3-(methyloxy)phenyl]-1-methylethyl}-1-(4-fluorophenyl)-1H-imidazol-2-yl]thio}methyl)phenyl]oxy}propyl)guanidine]"
< 0.1 µM,< 0.1 µM,COc1cc(C(C)(C)c2cnc(SCc3c(F)cc(OCCCNC(=N)N)cc3Cl)n2-c2ccc(F)cc2)ccc1Cl [1-(3-{[3-chloro-4-({[5-{1-[4-chloro-3-(methyloxy)phenyl]-1-methylethyl}-1-(4-fluorophenyl)-1H-imidazol-2-yl]thio}methyl)-5-fluorophenyl]oxy}propyl)guanidine]
< 0.1 µM,< 0.1 µM,COc1cc(C(C)(C)c2cnc(SCc3c(F)cc(OCCCNC(=N)N)cc3Cl)n2-c2ccc(F)cc2)ccc1F [1-(3-{[3-chloro-5-fluoro-4-({[5-{1-[4-fluoro-3-(methyloxy)phenyl]-1-methylethyl}-1-(4-fluorophenyl)-1H-imidazol-2-yl]thio}methyl)phenyl]oxy}propyl)guanidine]
< 0.1 µM,< 0.1 µM,"COc1cc(C(C)(C)c2cnc(SCc3c(F)cc(OCCCNC(=N)N)cc3F)n2-c2ccc(F)cc2)ccc1Cl [1-(3-{[4-({[5-{1-[4-chloro-3-(methyloxy)phenyl]-1-methylethyl}-1-(4-fluorophenyl)-1H-imidazol-2-yl]thio}methyl)-3,5-difluorophenyl]oxy}propyl)guanidine]"
